From PMC10287555, “Camonsertib in DNA damage response-deficient advanced solid tumors: phase 1 trial results” (Nature Medicine, 2023)

Assay: Treatment-related adverse events (TRAEs), TRESR
Assay type: in vivo, human
Method: Tolerability and safety of camonsertib was evaluated by assessment of AEs, TEAEs, serious adverse events (SAEs), DLTs, concomitant medications and procedures, physical examinations, vital sign measurements, clinical safety laboratory evaluations (hematology, chemistry and urinalysis), ECOG performance status scores and electrocardiograms.
All safety and efficacy endpoints were summarized with descriptive statistics. Safety data were summarized using the safety population, which consisted of all patients who received at least one dose of RP-3500. The DLT rate was based on the DLT-evaluable population, which included those patients in dose-escalation cohorts (M1a and M1b only) receiving ≥80% of planned doses of camonsertib, who completed all required safety evaluations and were observed through the end of cycle 1 or patients who experienced a DLT. Due to the different number of dose levels expected and the exploratory nature of the phase 1 study, anti-tumor activity parameters were primarily based on patients who received ≥1 dose of RP-3500 and had ≥1 post-baseline tumor assessment by RECIST 1.1 and/or GCIG CA-125 or PCWG3 PSA criteria, with an initial dose level of >100 mg d^−1 (dose level predicted to achieve efficacious exposure), as defined in the statistical analysis plan. Additional subgroups based on tumor types or genotypes of interest were based on this efficacy analysis set. […] Patients were, therefore, enrolled in the study and endpoints assessed regardless of sex, gender and race. No formal statistical tests were performed in this study. However, nominal P values (two-sided) were provided for the hypothesis-generating purpose of selected exploratory endpoints, without adjusting for multiplicity. A log-rank test was used in between-group comparisons for the time-to-event endpoints (PFS and DOT), and Fisher’s exact test was used in between-group comparisons for the binary endpoints (CBR, MR, etc.).

[1] = 3/4 schedule (n = 95), all grades
[2] = 5/2 schedule (n = 25), all grades

SMILES: C[C@@H]1COCCN1c1cc([C@]2(O)C[C@H]3CC[C@@H](C2)O3)c2cnn(-c3cc[nH]n3)c2n1 [camonsertib]
- Patients who discontinued due to treatment-related grade 3 anemia (1/120, after four cycles): 0.8%
- Anemia, all grades (3/4 schedule): 64%
- Anemia, grade 3 (3/4 schedule): 26%
- Fatigue TRAE, grade 3 (3/4 schedule (n = 95)): 2.1%
- Fatigue TRAE, overall (3/4 schedule (n = 95)): 27.4%
- Neutropenia TRAE, grade 3 (3/4 schedule (n = 95)): 10.5%
- Neutropenia TRAE, grade 4 (3/4 schedule (n = 95)): 3.2%
- Neutropenia TRAE, overall (3/4 schedule (n = 95)): 26.3%
- Thrombocytopenia TRAE, grade 3 (3/4 schedule (n = 95)): 6.3%
- Thrombocytopenia TRAE, grade 4 (3/4 schedule (n = 95)): 1.1%
- Thrombocytopenia TRAE, overall (3/4 schedule (n = 95)): 23.2%
- Any TRAE [1]: 82 (86.3) n (%)
- TRAE: Anemia [1]: 61 (64.2) n (%)
- TRAE: Decreased appetite [1]: 14 (14.7) n (%)
- TRAE: Diarrhea [1]: 13 (13.7) n (%)
- TRAE: Dysgeusia [1]: 5 (5.3) n (%)
- TRAE: Dyspnea [1]: 6 (6.3) n (%)
- TRAE: Fatigue [1]: 26 (27.4) n (%)
- TRAE: Nausea [1]: 23 (24.2) n (%)
- TRAE: Neutrophil count decreased/neutropenia [1]: 25 (26.3) n (%)
- TRAE: Platelet count decreased/thrombocytopenia [1]: 22 (23.2) n (%)
- TRAE: Vomiting [1]: 9 (9.5) n (%)
- TRAE: White blood cell count decreased [1]: 11 (11.6) n (%)
- Any TRAE (3/4 schedule (n = 95), grade 3): 30 (31.6) n (%)
- TRAE: Anemia (3/4 schedule (n = 95), grade 3): 25 (26.3) n (%)
- TRAE: Decreased appetite (3/4 schedule (n = 95), grade 3): 0 n (%)
- TRAE: Diarrhea (3/4 schedule (n = 95), grade 3): 0 n (%)
- TRAE: Dysgeusia (3/4 schedule (n = 95), grade 3): 0 n (%)
- TRAE: Dyspnea (3/4 schedule (n = 95), grade 3): 0 n (%)
- TRAE: Fatigue (3/4 schedule (n = 95), grade 3): 2 (2.1) n (%)
- TRAE: Nausea (3/4 schedule (n = 95), grade 3): 0 n (%)
- TRAE: Neutrophil count decreased/neutropenia (3/4 schedule (n = 95), grade 3): 10 (10.5) n (%)
- TRAE: Platelet count decreased/thrombocytopenia (3/4 schedule (n = 95), grade 3): 6 (6.3) n (%)
- TRAE: Vomiting (3/4 schedule (n = 95), grade 3): 0 n (%)
- TRAE: White blood cell count decreased (3/4 schedule (n = 95), grade 3): 4 (4.2) n (%)
- Any TRAE (3/4 schedule (n = 95), grade 4): 4 (4.2) n (%)
- TRAE: Anemia (3/4 schedule (n = 95), grade 4): 0 n (%)
- TRAE: Decreased appetite (3/4 schedule (n = 95), grade 4): 0 n (%)
- TRAE: Diarrhea (3/4 schedule (n = 95), grade 4): 0 n (%)
- TRAE: Dysgeusia (3/4 schedule (n = 95), grade 4): 0 n (%)
- TRAE: Dyspnea (3/4 schedule (n = 95), grade 4): 0 n (%)
- TRAE: Fatigue (3/4 schedule (n = 95), grade 4): 0 n (%)
- TRAE: Nausea (3/4 schedule (n = 95), grade 4): 0 n (%)
- TRAE: Neutrophil count decreased/neutropenia (3/4 schedule (n = 95), grade 4): 3 (3.2) n (%)
- TRAE: Platelet count decreased/thrombocytopenia (3/4 schedule (n = 95), grade 4): 1 (1.1) n (%)
- TRAE: Vomiting (3/4 schedule (n = 95), grade 4): 0 n (%)
- TRAE: White blood cell count decreased (3/4 schedule (n = 95), grade 4): 0 n (%)
- Nausea TRAE, overall (3/4 schedule (n = 95), all grade <3): 24.2%
- Anemia, all grades (5/2 schedule): 80%
- Anemia, grade 3 (5/2 schedule): 52%
- Any TRAE [2]: 22 (88.0) n (%)
- TRAE: Anemia [2]: 20 (80.0) n (%)
- TRAE: Decreased appetite [2]: 4 (16.0) n (%)
- TRAE: Diarrhea [2]: 0 n (%)
- TRAE: Dysgeusia [2]: 1 (4.0) n (%)
- TRAE: Dyspnea [2]: 5 (20.0) n (%)
- TRAE: Fatigue [2]: 7 (28.0) n (%)
- TRAE: Nausea [2]: 3 (12.0) n (%)
- TRAE: Neutrophil count decreased/neutropenia [2]: 6 (24.0) n (%)
- TRAE: Platelet count decreased/thrombocytopenia [2]: 7 (28.0) n (%)
- TRAE: Vomiting [2]: 3 (12.0) n (%)
- TRAE: White blood cell count decreased [2]: 1 (4.0) n (%)
- Any TRAE (5/2 schedule (n = 25), grade 3): 14 (56.0) n (%)
- TRAE: Anemia (5/2 schedule (n = 25), grade 3): 13 (52.0) n (%)
- TRAE: Decreased appetite (5/2 schedule (n = 25), grade 3): 0 n (%)
- TRAE: Diarrhea (5/2 schedule (n = 25), grade 3): 0 n (%)
- TRAE: Dysgeusia (5/2 schedule (n = 25), grade 3): 0 n (%)
- TRAE: Dyspnea (5/2 schedule (n = 25), grade 3): 0 n (%)
- TRAE: Fatigue (5/2 schedule (n = 25), grade 3): 1 (4.0) n (%)
- TRAE: Nausea (5/2 schedule (n = 25), grade 3): 0 n (%)
- TRAE: Neutrophil count decreased/neutropenia (5/2 schedule (n = 25), grade 3): 3 (12.0) n (%)
- TRAE: Platelet count decreased/thrombocytopenia (5/2 schedule (n = 25), grade 3): 2 (8.0) n (%)
- TRAE: Vomiting (5/2 schedule (n = 25), grade 3): 0 n (%)
- TRAE: White blood cell count decreased (5/2 schedule (n = 25), grade 3): 0 n (%)
- Any TRAE (5/2 schedule (n = 25), grade 4): 1 (4.0) n (%)
- TRAE: Anemia (5/2 schedule (n = 25), grade 4): 0 n (%)
- TRAE: Decreased appetite (5/2 schedule (n = 25), grade 4): 0 n (%)
- TRAE: Diarrhea (5/2 schedule (n = 25), grade 4): 0 n (%)
- TRAE: Dysgeusia (5/2 schedule (n = 25), grade 4): 0 n (%)
- TRAE: Dyspnea (5/2 schedule (n = 25), grade 4): 0 n (%)
- TRAE: Fatigue (5/2 schedule (n = 25), grade 4): 0 n (%)
- TRAE: Nausea (5/2 schedule (n = 25), grade 4): 0 n (%)
- TRAE: Neutrophil count decreased/neutropenia (5/2 schedule (n = 25), grade 4): 1 (4.0) n (%)
- TRAE: Platelet count decreased/thrombocytopenia (5/2 schedule (n = 25), grade 4): 1 (4.0) n (%)
- TRAE: Vomiting (5/2 schedule (n = 25), grade 4): 0 n (%)
- TRAE: White blood cell count decreased (5/2 schedule (n = 25), grade 4): 0 n (%)
- Tolerability (120 patients): well tolerated
- Anemia TRAE of any grade (all dose levels/schedules): 67.5%
- Anemia, grade 3 (most common drug-related toxicity) (all patients): 32%
- Anemia, grade 4 (both schedules): no grade 4 anemia was observed
